The source of these data is patent US12065654B2, “Plants having increased tolerance to herbicides” (BASF SE, priority 2014, dated 2024).

What all share (test): Greenhouse testing of soybean plants
Assay type in all cases: in vivo, Glycine max

The subject of experiment [1] is transgenic soybean plants AtHPPD M335H, event SDS-9863. Particulars: soybean AtHPPD M335H SDS-9863, 14 days, average of 8 T1 individuals. How it is done:
(§1) Transgenic plants expressing heterologous HPPD or HST enzymes are tested for tolerance against HPPD-inhibiting, preferably pyrazolone, isoxazole, or triketone derivative herbicides in greenhouse experiments.
(§2) For post emergence treatment, the test plants are first grown to a height of 3 to 15 cm, depending on the plant habit, and only then treated with the herbicides. For this purpose, the test plants are either sown directly and grown in the same containers, or they are first grown separately and transplanted into the test containers a few days prior to treatment.
(§3) For testing of T0 plants, cuttings can be used. In the case of soybean plants, an optimal shoot for cutting is about 7.5 to 10 cm tall, with at least two nodes present. Each cutting is taken from the original transformant (mother plant) and dipped into rooting hormone powder (indole-3-butyric acid, IBA). The cutting is then placed in oasis wedges inside a bio-dome. Wild type cuttings are also taken simultaneously to serve as controls. The cuttings are kept in the bio-dome for 5-7 days and then transplanted to pots and then acclimated in the growth chamber for two more days. Subsequently, the cuttings are transferred to the greenhouse, acclimated for approximately 4 days, and then subjected to spray tests as indicated.
(§4) Depending on the species, the plants are kept at 10-25° C. or 20-35° C. The test period extends over 3 weeks. During this time, the plants are tended and their response to the individual treatments is evaluated. Herbicide injury evaluations are taken at 2 and 3 weeks after treatment. […] Tolerance to HPPD-inhibiting, preferably pyrazolone, isoxazole, or triketone derivative herbicides can also be assessed in Arabidopsis. In this case transgenic Arabidopsis thaliana plants are assayed for improved tolerance to HPPD-inhibiting, preferably pyrazolone, isoxazole, or triketone derivative herbicides in 48-well plates. Seeds are surface sterilized by stirring for 5 min in ethanol+water (70+30 by volume), rinsing one time with ethanol+water (70+30 by volume) and two times with a sterile, deionized water. The seeds are resuspended in 0.1% agar dissolved in water (w/v). Four to five seeds per well are plated on solid nutrient medium consisting of half-strength Murashige Skoog nutrient solution, pH 5.8 (Murashige and Skoog (1962) Physiologia Plantarum 15: 473-497). Compounds are dissolved in dimethylsulfoxid (DMSO) and added to the medium prior solidification (final DMSO concentration 0.1%). Multi well plates are incubated in a growth chamber at 22° C., 75% relative humidity and 110 μmol Phot*m−2*s−1 with 14:10 h light:dark photoperiod. Seven to ten days after seeding growth inhibition is evaluated by comparison to wild type plants. Tolerance factor is calculated by dividing the plant growth IC50 value of transgenic plants containing a HPPD and/or HST sequence by that of wildtype plants.
(§5) Transgenic soy plants were sprayed with a range of doses from 6.25-100 g/ha with an HPPD-inhibiting herbicide and injury evaluations were taken two weeks after treatment. […] Compared to the untransformed wild-type, plants comprising polynucleotides encoding for Arabidopsis HPPD wild-type or mutated versions thereof were less susceptible to Inhibitor 1.

For experiment [2], the system named is soybean plants, transgene none (WT). Particulars: no transgene, 14 days after treatment. How it is done:
as §1, §2, §3, §4, §5

In experiment [3] the test system is transgenic soybean plants GmHPPD, event SDS-10298. Particulars: soybean GmHPPD SDS-10298, 14 days, average of 8 T1 individuals. How it is done:
as §1, §2, §3, §4, §5

Experiment [4] has as its system transgenic soybean plants AtHPPD, event SDS-10248. Particulars: for Injury evaluation (bleaching phenotype, scale of 1-100): soybean AtHPPD SDS-10248, 14 days, average of 8 T1 individuals. How it is done:
as §1, §2, §3
(§6) Depending on the species, the plants are kept at 10-25° C. or 20-35° C. The test period extends over 3 weeks. During this time, the plants are tended and their response to the individual treatments is evaluated. Herbicide injury evaluations are taken at 2 and 3 weeks after treatment. Plant injury is rated on a scale of 0 to 9, 0 being no injury and 9 being complete death. Tolerance to HPPD-inhibiting, preferably pyrazolone, isoxazole, or triketone derivative herbicides can also be assessed in Arabidopsis. In this case transgenic Arabidopsis thaliana plants are assayed for improved tolerance to HPPD-inhibiting, preferably pyrazolone, isoxazole, or triketone derivative herbicides in 48-well plates. Seeds are surface sterilized by stirring for 5 min in ethanol+water (70+30 by volume), rinsing one time with ethanol+water (70+30 by volume) and two times with a sterile, deionized water. The seeds are resuspended in 0.1% agar dissolved in water (w/v). Four to five seeds per well are plated on solid nutrient medium consisting of half-strength Murashige Skoog nutrient solution, pH 5.8 (Murashige and Skoog (1962) Physiologia Plantarum 15: 473-497). Compounds are dissolved in dimethylsulfoxid (DMSO) and added to the medium prior solidification (final DMSO concentration 0.1%). Multi well plates are incubated in a growth chamber at 22° C., 75% relative humidity and 110 μmol Phot*m−2*s−1 with 14:10 h light:dark photoperiod. Seven to ten days after seeding growth inhibition is evaluated by comparison to wild type plants. Tolerance factor is calculated by dividing the plant growth IC50 value of transgenic plants containing a HPPD and/or HST sequence by that of wildtype plants.
as §5

Experiment [5] deals with transgenic soybean plants AtHPPD P336A E363Q I393L L385V, event SDS-10085. The conditions noted are these: soybean AtHPPD P336A E363Q I393L L385V SDS-10085, 14 days, average of 8 T1 individuals. How it is done: as §1, §2, §3, §6, §5
Experiment [6] concerns transgenic soybean plants AtHPPD Q293S, event SDS-9928. The conditions noted are these: soybean AtHPPD Q293S SDS-9928, 14 days, average of 8 T1 individuals. How it is done: as §1, §2, §3, §6, §5
Experiment [7] concerns transgenic soybean plants AtHPPD M335Y, event SDS-9866. The conditions noted are these: soybean AtHPPD M335Y SDS-9866, 14 days, average of 8 T1 individuals. The procedure: as §1, §2, §3, §6, §5
Experiment [8] relates to transgenic soybean plants AtHPPD I393L L385V, event SDS-9908. Particulars: soybean AtHPPD I393L L385V SDS-9908, 14 days, average of 8 T1 individuals. How it is done: as §1, §2, §3, §6, §5

In the case of `Cc1c(C(=O)c2cnn(C)c2O)ccc(S(C)(=O)=O)c1C1=NOCC1` [Inhibitor 1, [3-(4,5-dihydroisoxazol-3-yl)-2-methyl-4-methylsulfonyl-phenyl]-(5-hydroxy-1-methyl-pyrazol-4-yl)methanone], the “Injury evaluation (bleaching phenotype, scale of 1-100)” value (“Injury evaluation” for short) in experiment [1] (6.25 g/ha) is on record as 0%; in experiment [1] (25 g/ha) it was 4%; in experiment [1] (100 g/ha) it was 59%; in experiment [2] (25 g/ha), 90%; in experiment [2] (100 g/ha), 90%; in experiment [3] (6.25 g/ha), 20%. Besides, the “Injury evaluation” value was found to be 58% in experiment [3] (25 g/ha); 83% in experiment [3] (100 g/ha); 2% in experiment [4] (6.25 g/ha); 3% in experiment [4] (25 g/ha); 44% in experiment [4] (100 g/ha); 16% in experiment [5] (6.25 g/ha). Further, the “Injury evaluation” value in experiment [5] (25 g/ha) was found to be 35%; in experiment [5] (100 g/ha) it was 78%; in experiment [6] (6.25 g/ha), 2%; in experiment [6] (25 g/ha), 40%; in experiment [6] (100 g/ha) it was 79%; in experiment [7] (6.25 g/ha) it was 0%. The “Injury evaluation” value in experiment [7] (25 g/ha) is 11%; in experiment [7] (100 g/ha), 31%; in experiment [8] (6.25 g/ha) it was 0%; in experiment [8] (25 g/ha) it was 8%; in experiment [8] (100 g/ha) it was 54%. The “fold tolerance compared to untransformed wild-type” value in experiment [4] (soy plants with SEQ ID NO:53, 100 g/ha) worked out at 2 fold.
